Measurements from US9693551B2, “Pesticidal dispersible concentrate formulations” (Valent U.S.A., Corporation, priority 2013, dated 2017).

Tests used:
Format in all cases: in vivo
Corn seeds = experiment: Efficacy on corn seeds in Mississippi (emergence and yield)
Fusarium = experiment: Efficacy on corn seed in Illinois, soil inoculated with Fusarium; details: for Plants per acre 14DAP / Plants per acre 28DAP: Fusarium-inoculated soil; for Plants per acre 14DAP: 14 days after planting; for Plants per acre 28DAP: 28 days after planting; for % disease: number of plants with Fusarium infection
Description: Corn seeds were treated with 1 fluid ounce per one hundred weight (fl oz/cwt) or 65 mls/100 kg seed of the Formulations of Examples 1 and 4 prior to being planted in Illinois. Untreated seeds (“UTC”) were planted to assess the disease impact in stand establishment. Besides the control, commercially available and known fungicides were applied to determine the effectiveness of formulations of the present invention. Maxim® XL (Maxim is a registered trademark of Syngenta) is a fungicide containing 21% fludioxonil and 8.4% mefenoxam in a proprietary formulation. Apron XL® (Apron XL is a registered trademark of Syngenta) is fungicide containing 33.3% of mefenoxam in a proprietary formulation. Metalaxyl was applied in a 30.1% formulation and metconazole was applied in an approximately 40% dispersion with approximately 4% glycerine and other inert ingredients.
At planting, the soil was inoculated with a fungus of the genus Fusarium, a common corn plant pathogen that causes stalk rot disease, to assess field performance and seedling protection of the above formulas.
“Plants per acre” was determined to establish stand density. “% disease” was calculated by observing number of plants with Fusarium infection. The “height (cm) on roots” was determined. Stand Density and % Disease of Illinois Corn Plants after Seed Treatment.”

Rhizoctonia = experiment: Efficacy on corn seed in Ohio, soil inoculated with Rhizoctonia
Description: Corn seeds were treated with 1 fluid ounce per one hundred weight (fl oz/cwt) of the Formulations of Examples 1 and 4 prior to being planted in Ohio. Untreated seeds were planted to assess the disease impact in stand establishment. Besides the control, commercially available and known fungicides were applied to determine the effectiveness of formulations of the present invention.
At planting, the soil was inoculated with a fungus of the genus Rhizoctonia, a common corn plant pathogen that causes rot disease, to assess field performance and seedling protection of the above formulas.
“Plants per acre” was determined to establish stand density. Stand Density of Ohio Corn Plants after Seed Treatment.”

Row | Structure (SMILES) | Yield (bu/A) (Corn seeds) | Yield (kg/hectare) (Corn seeds) | % Emergence 20DAP (Corn seeds) [%] | % Emergence 35DAP (Corn seeds) [%] | Height (cm) on roots (Fusarium) [cm] | Plants per acre 14DAP (Fusarium) [plants per acre] | Plants per acre 28DAP (Fusarium) [plants per acre] | % disease (Fusarium) [%] | Plants per acre 14DAP (Rhizoctonia) [plants per acre] | Plants per acre 28DAP (Rhizoctonia) [plants per acre]
1 | COCC(=O)N(c1c(C)cccc1C)C(C)C(=O)OC (centres unmarked) [Metalaxyl, metalaxyl] | 154 | 9662.3 | 91.5 | 83.3 | 61.0 | 25352 | 26049 | 18.0 | 22400 | 28700
2 | CC1(C)CCC(Cc2ccc(Cl)cc2)C1(O)Cn1cncn1 (centres unmarked) [Metconazole, metconazole] | 155.5 | 9756.4 | 80.8 | 84.8 | 57.3 | 28401 | 29011 | 37.6 | 28875 | 28700
